For data set [1] the following is noted: 10 mg, after 6 weeks therapy; cited from earlier work.
In data set [2] the test system is human subjects. The experiment in a line: Blood lipid changes after three single 5 mg rosuvastatin doses (Example 7). The class given is in vivo. The source says:
Each participant was given a single dose of medication on separate occasions after appropriate wash-out periods. […]

A short description of data set [3]: In vitro release/permeation of rosuvastatin through porcine buccal mucosa in modified Ussing chambers. The class given is in vitro ADME, pigs. How it is done:
Porcine buccal mucosa was freshly isolated from pigs cheeks, mounted between modified Ussing chambers with a donor chamber, receptor chamber and the porcine buccal mucosa in between with a diffusional area of 0.64 cm^2, and incubated in Krebs bicarbonate Ringer buffer (KBR, pH 7.4) for 30 min. The mixture or tablet containing rosuvastatin (supplied by Aspen Pharmacare Australia) were applied to the porcine buccal mucosa (ie in the donor chamber) and, when necessary, Parafilm was applied to cover the formulation (ie for tablets and for mixtures containing glyceryl monooleate (GMO) and rosuvastatin). The Parafilm prevented the various formulations from detaching from the buccal mucosa. KBR buffer (1.5 mL) was then added to both the donor and receptor chambers, and receptor samples (200 μL) were collected from the receptor chamber at various time points up to 4-5 hours to determine the amount of rosuvastatin that passed through the porcine buccal mucosa to the receptor chamber. 200 μL of fresh KBR was dispensed into the receptor chamber after each collection (to ensure volume balance). Receptor chamber samples were provided to Aspen Pharmacare Australia for quantification of rosuvastatin by HPLC.
Positive control was tested by making rosuvastatin solutions of 0.4 and 0.8 mg/1.5 ml KBR solution, equivalent to 1:[…] ODT's. […]

Setting [4] is: Mean of 3 subjects, three single 5 mg doses.
Setting [5] is: Person (buccal dosing), three single 5 mg doses.
Where [6] appears, read: Person one (sublingual dosing), three single 5 mg doses.
Where [7] appears, read: Person two (sublingual dosing), three single 5 mg doses.
The mark [8] stands for this setting: after three single 5 mg rosuvastatin doses.

For `CC(C)c1c(C(=O)Nc2ccccc2)c(-c2ccccc2)c(-c2ccc(F)cc2)n1CC[C@@H](O)C[C@@H](O)CC(=O)O` [atorvastatin], the “Reductions in LDL-C” value in data set [1] is given as 37%.

As to `CC(C)c1nc(N(C)S(C)(=O)=O)nc(-c2ccc(F)cc2)c1/C=C/[C@@H](O)C[C@@H](O)CC(=O)O` [rosuvastatin], in data set [2] (setting [4]), the “% change in HDL” value is on record as 4.8%, the “% change in LDL” value is −26.54%, the “% change in Triglycerides” value is −7.91% and the “% change in total cholesterol” value was −16.8%. For the same compound, in data set [2] (setting [5]), the “% change in HDL” value is on record as 5.9%, the “% change in LDL” value was −35.7%, the “% change in Triglycerides” value is given as 20.0% and the “% change in total cholesterol” value was −20.3%. Further, in data set [2] (setting [6]), the “% change in HDL” value is −5.9%, the “% change in LDL” value is −21.05%, the “% change in Triglycerides” value is reported as −37.5% and the “% change in total cholesterol” value was −17.5%. For the same compound, the “% change in total cholesterol” value in data set [2] (Person two (sublingual dosing), after 5 mg Crestor, 5 mg 1:1 tablet and 5 mg 7:1 tablet on consecutive days) is on record as −12.7%. Also, in data set [2] (setting [7]), the “% change in HDL” value was 14.3%, the “% change in LDL” value is given as −22.9% and the “% change in Triglycerides” value is reported as −16.6%. In data set [2] (setting [8]), the “increase of HDL” value is 5%, the “reduction of low density lipoproteins (LDL-C)” value was determined as 27% and the “reduction of total cholesterol (TC)” value was determined as 17%. In addition, in data set [3] (positive control solution 0.4 mg/1.5 ml KBR, equivalent to 1:1 ODT), the “Total rosuvastatin absorbed per minute” value was found to be 0.6 ng/mL. For the same compound, in data set [3] (positive control solution 0.8 mg/1.5 ml KBR, equivalent to 7:1 ODT), the “Total rosuvastatin absorbed per minute” value was found to be 0.3 ng/mL.

Values taken from US12521350B2, “Liquid crystalline dosage form for administering a statin” (CUBOPHARM PTY LTD, priority 2017, dated 2026).
